Drawing on PubChem BioAssay (NCI), this text covers TGI for seven compounds.

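Protocol summary: plate cells (96-well), add compound at 5 concentrations, incubate 48 h, interpolate endpoints linearly. Definition used: TGI = concentration required for complete inhibition of growth.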 A value given as a limit tells only on which side of the number the result lay.

Some test systems named below: SK-MEL-5 melanoma; BT-549 breast; OVCAR-8 ovarian; MOLT-4 leukemia; UACC-62 melanoma; LOX IMVI melanoma; HOP-62 NSCLC; SR leukemia; NCI-H522 lung; SK-MEL-28 melanoma; SK-OV-3 ovarian; SW-620 colon; UACC-257 melanoma; HCT-15 colon; COLO 205 colon; HT29 colon; SNB-19 CNS; TK-10 renal; MDA-MB-435.
Holding throughout (test): DTP human tumour cell line panel, 48 h

A word on the TGI: it is the concentration at which net growth stops. A high value points to lower sensitivity of the cells. Consider `Cc1ccc2c(=O)c3cccc(CC(=O)O)c3[nH]c2c1C`, for which the TGI with SK-MEL-5 melanoma, with BT-549 breast, in the experiment on OVCAR-8 ovarian, in the experiment with MOLT-4 leukemia, in the experiment with UACC-62 melanoma and with LOX IMVI melanoma was greater than 100 µM in each case. In addition, the concentration for total growth inhibition (TGI) in the experiment with HOP-62 NSCLC, in the experiment on SR leukemia, in the experiment on NCI-H522 lung, in the experiment with SK-MEL-28 melanoma, in the experiment on SK-OV-3 ovarian and in the experiment with SW-620 colon was greater than 100 µM each time. The TGI in the experiment on UACC-257 melanoma, in the experiment with HCT-15 colon, in the experiment with COLO 205 colon, in the experiment with HT29 colon, in the experiment on SNB-19 CNS and with TK-10 renal was greater than 100 µM each time. The same compound gave a TGI in the experiment on MDA-MB-435 greater than 100 µM.
Consider `O/C(=C\c1nc2ccccc2nc1/C=C(\O)c1ccc(Cl)cc1)c1ccccc1`, for which the TGI is greater than 100 µM with SK-MEL-5 melanoma; greater than 100 µM in the experiment on BT-549 breast; greater than 100 µM with OVCAR-8 ovarian; 40.9 µM in the experiment on MOLT-4 leukemia; greater than 100 µM in the experiment with UACC-62 melanoma; greater than 100 µM in the experiment with LOX IMVI melanoma. Besides, the TGI with HOP-62 NSCLC, with SR leukemia, in the experiment on NCI-H522 lung, with SK-MEL-28 melanoma, in the experiment on SK-OV-3 ovarian and in the experiment on SW-620 colon was greater than 100 µM each time. Further, the total growth inhibition concentration (TGI) with UACC-257 melanoma, in the experiment with HCT-15 colon, with COLO 205 colon, in the experiment on SNB-19 CNS, in the experiment with TK-10 renal and with MDA-MB-435 was greater than 100 µM in each case.
Regarding `O=S1CCS(=O)CCS(=O)CC1` (configuration not stated), the TGI in the experiment with SK-MEL-5 melanoma, with BT-549 breast, with OVCAR-8 ovarian, in the experiment on MOLT-4 leukemia, in the experiment with UACC-62 melanoma and with LOX IMVI melanoma was greater than 100 µM each time. In addition, the TGI with HOP-62 NSCLC, in the experiment with SR leukemia, in the experiment with NCI-H522 lung, in the experiment with SK-MEL-28 melanoma, in the experiment with SK-OV-3 ovarian and with SW-620 colon was greater than 100 µM in each case. In addition, the TGI with UACC-257 melanoma, in the experiment on HCT-15 colon, in the experiment with COLO 205 colon, in the experiment with HT29 colon, in the experiment with SNB-19 CNS and in the experiment with TK-10 renal was greater than 100 µM in each case. Besides, in the experiment on MDA-MB-435, the TGI is greater than 100 µM.
On to `Oc1cc(-c2ccccc2)cn2c1nc1ccccc12`, for which the TGI was 29.7 µM with SK-MEL-5 melanoma; greater than 100 µM in the experiment on BT-549 breast; greater than 54.3 µM in the experiment on OVCAR-8 ovarian; greater than 100 µM in the experiment on MOLT-4 leukemia; 19.5 µM in the experiment with UACC-62 melanoma; greater than 100 µM in the experiment with LOX IMVI melanoma. Further, the total growth inhibition concentration (TGI) in the experiment with HOP-62 NSCLC was greater than 52.6 µM; with SR leukemia, greater than 28.5 µM; in the experiment with NCI-H522 lung it was greater than 25.1 µM; in the experiment on SK-MEL-28 melanoma, greater than 100 µM; with SK-OV-3 ovarian, 6.09 µM; in the experiment with SW-620 colon, greater than 100 µM. Besides, the total growth inhibition concentration (TGI) in the experiment on UACC-257 melanoma is greater than 100 µM; in the experiment on HCT-15 colon, greater than 100 µM; with COLO 205 colon it was greater than 100 µM; in the experiment with HT29 colon, greater than 77.7 µM; with SNB-19 CNS it was greater than 100 µM; in the experiment with TK-10 renal, greater than 100 µM. In the experiment with MDA-MB-435, this compound had a TGI greater than 100 µM.
Take `Cc1ccc(N=Nc2ccc(O)c(CN(C)C)c2)cc1C`: the TGI in the experiment with SK-MEL-5 melanoma is 28.4 µM; in the experiment with BT-549 breast it was greater than 100 µM; in the experiment on OVCAR-8 ovarian, greater than 100 µM; in the experiment with MOLT-4 leukemia it was 61.5 µM; in the experiment with UACC-62 melanoma, 34.6 µM; with LOX IMVI melanoma, 76.2 µM. In addition, the TGI with HOP-62 NSCLC is 52.5 µM; with SR leukemia, greater than 100 µM; in the experiment on NCI-H522 lung, 28.3 µM; with SK-MEL-28 melanoma, 44.7 µM; in the experiment on SK-OV-3 ovarian it was greater than 100 µM; in the experiment with SW-620 colon it was greater than 100 µM. Moreover, the TGI in the experiment with UACC-257 melanoma is 58.9 µM; in the experiment with HCT-15 colon it was 54 µM; with COLO 205 colon it was 25.6 µM; in the experiment with HT29 colon, 38.5 µM; in the experiment with SNB-19 CNS it was greater than 100 µM; in the experiment on TK-10 renal, 43.3 µM. Besides, in the experiment on MDA-MB-435, the TGI stood at 40.4 µM.
With `Cc1nc(Nc2ccccc2Cl)sc1C(=O)CC(=O)C(=O)Nc1c(Cl)cccc1Cl`, the TGI in the experiment on SK-MEL-5 melanoma was greater than 100 µM; in the experiment on BT-549 breast it was 86.2 µM; in the experiment with OVCAR-8 ovarian, 96.7 µM; in the experiment on MOLT-4 leukemia it was 67.9 µM; with UACC-62 melanoma it was greater than 100 µM; with LOX IMVI melanoma it was 85.8 µM. The concentration for total growth inhibition (TGI) with HOP-62 NSCLC is greater than 100 µM; in the experiment on SR leukemia, 68.6 µM; in the experiment with NCI-H522 lung it was 60.4 µM; in the experiment with SK-MEL-28 melanoma, 85.6 µM; in the experiment with SK-OV-3 ovarian it was greater than 100 µM; with SW-620 colon, 65.5 µM. For the same compound, the total growth inhibition concentration (TGI) with UACC-257 melanoma is greater than 100 µM; in the experiment on HCT-15 colon, greater than 100 µM; in the experiment on COLO 205 colon, 38.7 µM; in the experiment on HT29 colon, greater than 100 µM; with SNB-19 CNS, greater than 100 µM; in the experiment with TK-10 renal it was greater than 100 µM. Also, the TGI with MDA-MB-435 came out at 50 µM.
As to `COC(=O)c1sc2ncc3c(c2c1N)CCCCCC3`, the TGI in the experiment with SK-MEL-5 melanoma, with BT-549 breast, with OVCAR-8 ovarian, in the experiment with MOLT-4 leukemia, in the experiment with UACC-62 melanoma and in the experiment on LOX IMVI melanoma was greater than 100 µM each time. In addition, the TGI in the experiment on HOP-62 NSCLC, in the experiment with SR leukemia, with NCI-H522 lung, with SK-MEL-28 melanoma, in the experiment on SK-OV-3 ovarian and in the experiment with SW-620 colon was greater than 100 µM each time. Moreover, the concentration for total growth inhibition (TGI) in the experiment with UACC-257 melanoma, in the experiment on HCT-15 colon, with COLO 205 colon, with HT29 colon, in the experiment with SNB-19 CNS and with TK-10 renal was greater than 100 µM each time. Moreover, the concentration for total growth inhibition (TGI) in the experiment on MDA-MB-435 is greater than 100 µM.
